Test results published in paper PMC5531278 (Bioorganic & medicinal chemistry letters, 2016).
Where two headings read alike, the source gives them in different places.

Legend:
[1] = tested on: GL261-luc2; assay: MTT cell viability assay in GL261-luc2; type: cell-based; settings: Mus musculus, 72 h, read-out: MTT assay IC50
[2] = tested on: CD-1 mice; settings: mouse, in vivo
[3] = in vitro; settings: human, microsomes
[4] = in vitro; settings: mouse
[5] = Bidirectional Caco-2 cell monolayer permeability; settings: human, Caco-2, pH 6.5
[6] = tested on: Caco-2 cell monolayer; assay: Bidirectional Caco-2 cell monolayer permeability; settings: based on the Caco-2 permeability study

In the case of `O=C(O)c1cc2ccc(N(Cc3ccccc3)Cc3ccccc3)cc2oc1=O` [4a, 7-(dibenzylamino)-2-oxo-2H-chromene-3-carboxylic acid], the IC50 [1] is reported as > 250 µM, the “Body weights compared to the control group” value ([2]; ip, 20 mg/kg) is reported as “no significant difference in body weights” and the “Visible toxic effects or mortality” value ([2]; ip, 20 mg/kg) is reported as “did not show any visible toxic effects or mortality”. The “Body weights compared to the control group” value ([2]; po, 100 mg/kg) was “no significant difference in body weights”, the “Visible toxic effects or mortality” value ([2]; po, 100 mg/kg) was “did not show any visible toxic effects or mortality” and the microsomal CLint at 0.1 μM [3] was < 116 µL/min/mg. The microsomal CLint at 0.1 μM ([4]; microsomes) was < 116 µL/min/mg, the half-life at 0.1 μM ([4]; microsomes, Half-life Trial 1) was 1.51 h and the half-life at 0.1 μM ([4]; microsomes, Half-life Trial 2) was 1.23 h. For the same compound, the Papp A→B at 10 µM [5] was 32 ×10⁻⁶ cm/s, the Papp B→A at 10 µM [5] was 6.4 ×10⁻⁶ cm/s and the Absorption [6] was ~ 30%.
For `O=C(O)c1cc2ccc(N3CCCC3)cc2oc1=O` [4b], the IC50 [1] was > 250 µM.
With `CCCN(CCC)c1ccc2cc(C(=O)O)c(=O)oc2c1` [4c] the IC50 [1] was > 250 µM.
With `C=CCN(CC=C)c1ccc2cc(C(=O)O)c(=O)oc2c1` [4d] the IC50 [1] was > 250 µM.
For `C#CCN(CC#C)c1ccc2cc(C(=O)O)c(=O)oc2c1` [4e], the IC50 [1] was > 250 µM.
In the case of `CC(C)NCC(O)COc1cccc2ccccc12` (centres unmarked) [Propranolol], the half-life at 0.1 μM ([4]; liver microsomes, Half-life Trial 2, mouse liver microsomes, 0.1 μM) is reported as 0.158 h.
